Data on three molecules can be found in patent publication US20240409560A1, “PYRIMIDINE TRICYCLIC DERIVATIVE AND PHARMACEUTICAL APPLICATION THEREOF” (CHIA TAI TIANQING PHARMACEUTICAL GROUP CO., LTD., priority 2021, published 2024).

Series [1] is described as follows: Tissue distribution study in rats, oral administration. The format is in vivo, Sprague Dawley rats. To be noted: male SD rats, po 1 mg/kg; samples at 2, 6, 12 h. How it is done:
Objective: This study was intended to test the distribution ratio of the compounds in plasma, heart, cerebrospinal fluid, and brain tissue in the case of oral administration.
Sprague Dawley Rats (Male, 200-300 g, 7-9 Weeks Old, Shanghai SLAC)
In the project, 6 male SD rats were orally dosed at 1 mg/kg, 0.2 mg/mL. Samples of cerebrospinal fluid, brain, heart tissue, and plasma were collected at 2 h, 6 h, and 12 h after the dosing and then subjected to LC-MS/MS analysis, and data were recorded. Relevant pharmacokinetic parameters were calculated using the Phoenix WinNonlin 6.3 software based on the recorded data.

Series [2] can be described thus: In vivo pharmacokinetic property study in male SD rats. To be noted: Sprague-Dawley, rat, plasma. The protocol: Objective: This study was intended to determine the pharmacokinetic parameters of the compounds in male SD rats.
Sprague Dawley rats (Male, 200-300 g, 7-9 weeks old, Shanghai SLAC)
In the project, 4 male SD rats were used. One group of 2 SD rats were dosed by intravenous injection at 0.3 mg/kg, 0.15 mg/mL and another group of 2 SD rats were orally dosed at 1 mg/kg, 0.2 mg/mL. Plasma samples were collected at 0.083 h (the intravenous injection group only), 0.25 h, 0.5 h, 1 h, 2 h, 4 h, 6 h, 8 h, 12 h, and 24 h after the dosing and then subjected to LC-MS/MS analysis, and data were recorded. Relevant pharmacokinetic parameters were calculated using the Phoenix WinNonlin 6.3 software based on the recorded data.

For series [3], the target named is T1, sGC (Homo sapiens, UniProt Q02153).
T1 construct: endogenous in cells; host or cells: LNCaP cells (14th passage), no transfection described
T1 sequence (Q02153 1-619): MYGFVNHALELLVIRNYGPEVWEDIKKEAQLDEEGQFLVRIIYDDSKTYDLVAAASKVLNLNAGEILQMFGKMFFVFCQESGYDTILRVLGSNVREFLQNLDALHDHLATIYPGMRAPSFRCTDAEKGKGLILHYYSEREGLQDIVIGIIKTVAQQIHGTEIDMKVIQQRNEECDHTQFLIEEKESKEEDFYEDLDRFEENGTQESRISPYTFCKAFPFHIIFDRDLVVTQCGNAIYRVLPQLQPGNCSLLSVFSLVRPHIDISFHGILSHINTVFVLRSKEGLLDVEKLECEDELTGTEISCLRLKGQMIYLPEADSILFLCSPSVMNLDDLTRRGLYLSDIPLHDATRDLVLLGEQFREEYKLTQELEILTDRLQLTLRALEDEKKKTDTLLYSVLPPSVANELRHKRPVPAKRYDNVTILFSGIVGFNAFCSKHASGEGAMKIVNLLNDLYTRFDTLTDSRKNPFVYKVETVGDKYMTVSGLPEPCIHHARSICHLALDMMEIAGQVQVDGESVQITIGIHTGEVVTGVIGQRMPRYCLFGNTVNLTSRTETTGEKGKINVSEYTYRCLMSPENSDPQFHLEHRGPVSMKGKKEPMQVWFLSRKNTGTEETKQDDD
T1 sequence (Q02108 1-690 partner): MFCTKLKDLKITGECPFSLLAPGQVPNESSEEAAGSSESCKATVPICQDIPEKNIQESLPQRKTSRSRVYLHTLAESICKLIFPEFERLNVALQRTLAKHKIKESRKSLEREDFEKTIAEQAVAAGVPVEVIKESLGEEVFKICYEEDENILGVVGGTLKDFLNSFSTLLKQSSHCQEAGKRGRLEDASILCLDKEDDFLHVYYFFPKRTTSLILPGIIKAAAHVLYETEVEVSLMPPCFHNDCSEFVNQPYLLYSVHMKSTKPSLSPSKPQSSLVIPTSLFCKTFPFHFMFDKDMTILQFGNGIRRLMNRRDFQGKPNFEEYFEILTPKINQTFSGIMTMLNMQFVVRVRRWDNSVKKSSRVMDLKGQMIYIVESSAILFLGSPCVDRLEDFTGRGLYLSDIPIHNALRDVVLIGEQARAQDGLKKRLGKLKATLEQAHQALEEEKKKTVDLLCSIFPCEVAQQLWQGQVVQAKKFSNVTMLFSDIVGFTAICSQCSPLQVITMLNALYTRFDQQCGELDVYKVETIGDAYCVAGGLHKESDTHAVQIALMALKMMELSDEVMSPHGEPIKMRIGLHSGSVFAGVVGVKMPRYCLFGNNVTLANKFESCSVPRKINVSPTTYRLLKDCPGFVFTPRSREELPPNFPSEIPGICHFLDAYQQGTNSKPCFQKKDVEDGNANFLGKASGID
As to the kind of experiment: LNCap cell-based cGMP expression assay (HTRF). To be noted: minimum effective concentration to stimulate cGMP production (three times greater than the basal value) in lnCap cells; DETA-NO added. The protocol: I. InCap Cell-Based cGMP Expression Assay
• 10 g of BSA was dissolved in 100 mL of double distilled water (ddH2O) to give 10% BSA.
• 10 mg of DETA-NO was weighed out and dissolved in 12.2 mL of double distilled water (ddH2O) to give 5 mM DETA-NO, which was aliquoted and cryopreserved in a freezer at −20° C.
• a) To 1 mL of a lysis buffer was added 50 μL of cGMP-D2 (D2-labeled cyclic guanosine monophosphate), and the mixture was well mixed. • b) To 1 mL of a lysis buffer was added 50 μL of anti-cGMP cryptate (Eu^3+ cryptate-labeled anti-cyclic guanosine monophosphate antibody), and the mixture was well mixed.
• (1) The compounds were diluted to 5 mM with DMSO, 10 μL of each of the compounds was transferred to a shallow well plate for Echo. • (2) The compounds were serially diluted with Echo. Each of the compounds was diluted to obtain 10 concentration gradients, and 50 nL of each compound at each concentration gradient was added to a 384 microwell plate.
• (1) LNCap medium: RPMI1640+10% fetal bovine serum+1% […]. • (2) Phosphate buffered saline, pancreatin, and the medium used in the process of cell passaging were pre-heated in a water bath at 37° C. • (3) The cells (the 14th generation) were taken out of the 37° C. 5% CO2 incubator, and the old medium was pipetted off the culture flask. • (4) 5 mL of phosphate buffered saline was pipetted into the culture flask to rinse the cells, and then the liquid was discarded. • (5) 3 mL of pancreatin was pipetted into the culture flask. After the culture flask was shaken, the liquid was discarded, and the culture flask was placed in the incubator. • (6) After about 2 min, the culture flask was taken out. […] The cell suspension was transferred to a 50 mL centrifuge tube. • (7) 0.7 mL of the cell suspension was pipetted into a counter cup and the cells were counted on a ViCell XR. […]
• (1) cGMP-D2 was transferred to the 384 microwell plate at 5 μL/well using Bravo. […] The mixtures were centrifuged at 1500 rpm for 1 min. • (3) The plate was incubated at room temperature for 1 h. • (4) 665/615 was read using envision. […]

Turning to `CO[C@@]12C(=O)Nc3nc(-c4nn(CCC(F)(F)C(F)(F)F)c5ncc(F)cc45)nc(c31)NC(=O)C2(C)C` [Compound 006], in series [1], the “AUC0-last, heart” value is 6970 h*nmol/L or h*nmol/kg and the “AUC0-last, plasma” value is 1889 h*nmol/L or h*nmol/kg. In addition, in series [2] (iv 0.3 mg/kg), the clearance turned out to be 4.58 mL/min/kg and the half-life was 6.28 h. Besides, in series [2] (iv 0.3 mg/kg, read-out: Vdss), the Vd turned out to be 2.36 L/kg. In series [2] (po 1 mg/kg), this molecule showed a bioavailability of 65% and a half-life of 6.7 h. Further, in series [3], the “MEC of the stimulating activity for sGC” value is on record as 214 nM.
Take `CO[C@]12C(=O)Nc3nc(-c4nn(CCC(F)(F)C(F)(F)F)c5ncc(F)cc45)nc(c31)NC(=O)C2(C)C` [Compound 007]: in series [3], the “MEC of the stimulating activity for sGC” value stood at 548 nM.
On the same count and under the same terms, the figure for `CC1(C)C(=O)Nc2nc(-c3nn(Cc4ccccc4F)c4ncc(F)cc34)nc3c2C1(O)C(=O)N3` (stereo not shown) [Compound 016] is 19.3 nM.
